≈ marks a conversion by molar mass, not a printed value. Each block holds one molecule with its values, some of them ahead of it.
Legend:
[1] = Particle size distribution (PSD), laser particle size analyzer, wet process; type: physicochemical; conditions: dispersion medium Isopar G
Experimental: The particle size distribution test in the present disclosure is acquired by the S3500 laser particle size analyzer of Microtrac. Microtrac S3500 is equipped with the Sample Delivery Controller. The test is carried out by wet process, and the dispersion medium is Isopar G. The parameters are as follow:
D10: The D10 describes the diameter where 10% of the distribution has a smaller particle size.
D50: The D50 describes the diameter where 50% of the distribution has a smaller particle size. The median is also called D50.
D90: The D90 describes the diameter where 90% of the distribution has a smaller particle size. Unless otherwise specified, the following examples were conducted at room temperature.

[2] = Solubility of saturated solutions in acetone and tetrahydrofuran by HPLC; conditions: saturated solution, after 24 hours
[3] = Hygroscopicity by dynamic vapor sorption (DVS); type: physicochemical; conditions: for Weight gain 10% RH / Weight gain 20% RH / Weight gain 30% RH / Weight gain 40% RH / Weight gain 50% RH / Weight gain 60% RH: DVS 0-95%-0 RH cycle at 25° C.
Experimental: Dynamic Vapor Sorption (DVS) is measured via a SMS (Surface Measurement Systems Ltd.) intrinsic DVS. Its control software is DVS-Intrinsic control software, and its analysis software is DVS-Intrinsic Analsis software. Typical Parameters for DVS test are as follows:
Gas and flow rate: N2, 200 mL/min
RH range: 0% RH to 95% RH
Hygroscopicity of form III was measured in dynamic vapor sorption (DVS) instrument using 7.34 mg of form III obtained from example 6. The DVS plot is shown in FIG. 20, and the weight gain of form III at 80% RH is 6.48%.
6.5 mg of prior form 7 was placed in a DVS instrument, and subjected to a cycle of 0-95%-0RH at 25° C., the DVS plot is shown in FIG. 23.
9.2 mg of Form I was placed in a DVS instrument, and subjected to a cycle of 0-95%-0RH at 25° C., the DVS plot is shown in FIG. 24.
3.6 mg of Form II was placed in a DVS instrument and subjected to a cycle of 0-95%-0RH at 25° C., the DVS plot is shown in FIG. 25.

[4] = Storage stability (purity and XRPD crystalline form after storage); type: physicochemical
Experimental: Form II obtained from example 3 was stored under 25° C./60% RH for 90 days. XRPD patterns were collected before and after stored for 15 days, 30 days and 90 days.
Form III was stored under 25° C./60% RH and 40° C./75% RH for 300 days. XRPD patterns were collected after stored for 15 days, 30 days and 300 days.

[5] = Slurry/stirring in H2O/IPA solvent systems with different water activities, final form by XRPD; type: physicochemical; conditions: 6 days
Experimental: Prior form 7 as starting material was stirred at room temperature in solvent systems with different water activities for 6 days, and tested.
Prior form 3 was stirred at room temperature in solvent systems with different water activities for 4 days, then the solid was tested.

[6] = cited from earlier work
[7] = listed as Form I of the present disclosure
[8] = listed as Form II of the present disclosure

D(10) [1, 7]: 10.23 μm
D(50) [1, 7]: 62.54 μm
D(90) [1, 7]: 240.0 μm
Solubility ([2]; Acetone): 61 µg/mL (≈ 148 µM)
Solubility ([2]; Tetrahydrofuran): 48 µg/mL (≈ 117 µM)
Weight gain 10% RH [3, 7]: 0.69%
Weight gain 20% RH [3, 7]: 0.99%
Weight gain 30% RH [3, 7]: 1.33%
Weight gain 40% RH [3, 7]: 1.82%
Weight gain 50% RH [3]: 2.82%
Weight gain 60% RH [3, 7]: 8.13%
Compound: c1cn2cc(-c3ccc4cn[nH]c4c3)nc(Nc3ccc(N4CCOCC4)cc3)c2n1 [Form I, 6-(1H-indazol-6-yl)-N-[4-(4-morpholinyl)phenyl] imidazo [1,2-a]pyrazin-8-amine]

D(10) [1, 8]: 4.15 μm
D(50) [1, 8]: 27.48 μm
D(90) [1, 8]: 128.7 μm
Crystalline form after storage ([4]; 25° C./60%RH, 15 days): Form II
Purity % ([4]; 25° C./60%RH, 15 days): 99.50%
Crystalline form after storage ([4]; 25° C./60%RH, 30 days): Form II
Purity % ([4]; 25° C./60%RH, 30 days): 99.78%
Crystalline form after storage ([4]; 25° C./60%RH, 90 days): Form II
Purity % ([4]; 25° C./60%RH, 90 days): 99.52%
Crystalline form after storage ([4]; 25° C./60%RH, initial): Form II
Purity % ([4]; 25° C./60%RH, initial): 99.64%
Solubility ([2]; Acetone): 26 µg/mL (≈ 63.2 µM)
Solubility ([2]; Tetrahydrofuran): 18 µg/mL (≈ 43.7 µM)
Weight gain 10% RH [3, 8]: 1.41%
Weight gain 20% RH [3, 8]: 1.98%
Weight gain 30% RH [3, 8]: 2.34%
Weight gain 40% RH [3, 8]: 2.65%
Weight gain 50% RH [3, 8]: 2.95%
Weight gain 60% RH [3, 8]: 3.35%
weight gain at 0-70% RH (in words) ([3]; DVS at 25° C., 0-70% RH): doesn't show obvious weight gain
Compound: c1cn2cc(-c3ccc4cn[nH]c4c3)nc(Nc3ccc(N4CCOCC4)cc3)c2n1 [Form II, 6-(1H-indazol-6-yl)-N-[4-(4-morpholinyl)phenyl] imidazo [1,2-a]pyrazin-8-amine]

Crystalline form after storage ([4]; 25° C./60%RH, 15 days): Form III
Purity % ([4]; 25° C./60%RH, 15 days): 99.71%
Crystalline form after storage ([4]; 25° C./60%RH, 30 days): Form III
Purity % ([4]; 25° C./60%RH, 30 days): 99.78%
Crystalline form after storage ([4]; 25° C./60%RH, 300 days): Form III
Purity % ([4]; 25° C./60%RH, 300 days): 99.56%
Crystalline form after storage ([4]; 25° C./60%RH, initial): Form III
Purity % ([4]; 25° C./60%RH, initial): 99.82%
Crystalline form after storage ([4]; 40° C./75%RH, 15 days): Form III
Purity % ([4]; 40° C./75%RH, 15 days): 99.68%
Crystalline form after storage ([4]; 40° C./75%RH, 30 days): Form III
Purity % ([4]; 40° C./75%RH, 30 days): 99.73%
Crystalline form after storage ([4]; 40° C./75%RH, 300 days): Form III
Purity % ([4]; 40° C./75%RH, 300 days): 99.47%
Crystalline form after storage ([4]; 40° C./75%RH, initial): Form III
Purity % ([4]; 40° C./75%RH, initial): 99.82%
weight gain at 80% RH ([3]; DVS, 25° C., 80% RH): 6.48%
crystalline form after DVS test (XRPD) ([3]; solid collected after DVS): doesn't change
Compound: c1cn2cc(-c3ccc4cn[nH]c4c3)nc(Nc3ccc(N4CCOCC4)cc3)c2n1 [Form III, 6-(1H-indazol-6-yl)-N-[4-(4-morpholinyl)phenyl] imidazo [1,2-a]pyrazin-8-amine]

D(10) [1]: 3.41 μm
D(50) [1]: 9.37 μm
D(90) [1]: 37.69 μm
Final crystalline form ([5]; H2O/IPA = 1:99, water activity 0.12, room temperature): Form III of the present
Final crystalline form ([5]; H2O/IPA = 3:97, water activity 0.3, room temperature): Form III of the present
Final crystalline form ([5]; H2O/IPA = 6:94, water activity 0.5, room temperature): Form III of the present
Final crystalline form ([5]; H2O/IPA = 11:89, water activity 0.7, room temperature): Form III of the present
Final crystalline form ([5]; H2O/IPA = 23:77, water activity 0.9, room temperature): Form III of the present
Final crystalline form in all experiments ([5]; all water activities, room temperature): converted to form III
Weight gain 10% RH [3]: 1.68%
Weight gain 20% RH [3]: 2.78%
Weight gain 30% RH [3]: 4.61%
Weight gain 40% RH [3]: 10.04%
Weight gain 40% RH ([3]; listed as prior form 7): 10%
Weight gain 50% RH [3]: 11.00%
Weight gain 60% RH [3]: 11.83%
Compound: CS(=O)(=O)O.CS(=O)(=O)O.c1cn2cc(-c3ccc4cn[nH]c4c3)nc(Nc3ccc(N4CCOCC4)cc3)c2n1 [Prior form 7, reference compound]
weight gain at 80% RH (prior crystalline forms) ([6]; 80% RH): ~20%
hygroscopicity under various humidity conditions ([6]; various humidity conditions): very high
